# Assay results reported in ChEMBL document CHEMBL6103581, “Identification of Thieno[3,2-d]pyrimidine derivatives as potent and selective Janus Kinase 1 inhibitors” (Eur J Med Chem, 2025).
# What was measured:
# BaF3 = assay: Antiproliferative activity against mouse parental BaF3 cells assessed as cell growth inhibition incubated for 72 hrs by Cell-TiterGlo assay; format: functional
# [1] = Antiproliferative activity against mouse Ba/F3-TEL-JAK1 cells assessed as cell growth inhibition incubated for 72 hrs by Cell-TiterGlo assay; format: functional
# NCI-H1975 = assay: Antiproliferative activity against human NCI-H1975 cells assessed as cell growth inhibition incubated for 72 hrs by Cell-TiterGlo assay; format: functional
# NCI-H2087 = assay: Antiproliferative activity against human NCI-H2087 cells assessed as cell growth inhibition incubated for 72 hrs by Cell-TiterGlo assay; format: functional
# [2] = biological target: Tyrosine-protein kinase JAK2 (Homo sapiens, UniProt O60674); assay: Inhibition of N-terminal GST-tagged human recombinant JAK2 (804 to end residues) extracted from baculovirus infected in Sf9 cells using IGF1Rtide as substrate preincubated for 15 min followed by substrate addition and measured after 1 hr by ADP-Glo kinase assay
# [3] = biological target: T1, Tyrosine-protein kinase JAK3 (Homo sapiens, UniProt P52333); assay: Inhibition of N-terminal GST-tagged human recombinant JAK3 (781 to end residues) extracted from baculovirus infected in Sf9 cells using Poly(4:1 Glu, Tyr) as substrate preincubated for 15 min followed by substrate addition and measured after 1 hr by ADP-Glo kinase assay
# T1 sequence (P52333 whole entry): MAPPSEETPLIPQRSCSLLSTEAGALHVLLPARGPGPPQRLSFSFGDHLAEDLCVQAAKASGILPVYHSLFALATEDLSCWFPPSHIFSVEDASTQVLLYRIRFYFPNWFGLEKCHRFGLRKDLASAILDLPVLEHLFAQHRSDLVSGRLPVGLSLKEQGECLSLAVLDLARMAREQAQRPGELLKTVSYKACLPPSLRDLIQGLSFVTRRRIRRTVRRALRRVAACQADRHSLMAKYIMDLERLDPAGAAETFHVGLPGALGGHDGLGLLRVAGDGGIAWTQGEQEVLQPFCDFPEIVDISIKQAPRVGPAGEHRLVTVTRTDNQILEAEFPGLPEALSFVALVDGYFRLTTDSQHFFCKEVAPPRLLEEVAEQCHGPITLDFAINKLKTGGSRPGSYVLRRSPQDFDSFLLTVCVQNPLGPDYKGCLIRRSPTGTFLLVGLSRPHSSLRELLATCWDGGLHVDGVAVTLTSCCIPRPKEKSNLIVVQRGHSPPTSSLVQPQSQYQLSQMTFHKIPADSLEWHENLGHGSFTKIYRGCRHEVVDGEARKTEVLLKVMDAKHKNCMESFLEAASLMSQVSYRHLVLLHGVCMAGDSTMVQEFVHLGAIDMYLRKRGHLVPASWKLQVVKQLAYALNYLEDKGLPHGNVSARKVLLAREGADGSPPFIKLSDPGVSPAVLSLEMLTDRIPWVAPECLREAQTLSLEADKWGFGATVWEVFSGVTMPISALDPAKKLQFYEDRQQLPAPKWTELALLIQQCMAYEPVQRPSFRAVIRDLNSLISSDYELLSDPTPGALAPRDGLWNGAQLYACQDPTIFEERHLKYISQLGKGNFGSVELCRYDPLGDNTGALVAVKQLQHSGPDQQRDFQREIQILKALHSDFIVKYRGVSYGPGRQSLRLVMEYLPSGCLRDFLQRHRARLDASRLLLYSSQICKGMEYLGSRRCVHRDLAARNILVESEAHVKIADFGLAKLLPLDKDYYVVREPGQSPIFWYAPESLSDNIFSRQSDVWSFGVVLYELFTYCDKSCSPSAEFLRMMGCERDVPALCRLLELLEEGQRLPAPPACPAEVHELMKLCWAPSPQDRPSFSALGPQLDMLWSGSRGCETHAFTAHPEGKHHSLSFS
# Tyrosine-protein kinase JAK2, sequence (O60674 whole entry): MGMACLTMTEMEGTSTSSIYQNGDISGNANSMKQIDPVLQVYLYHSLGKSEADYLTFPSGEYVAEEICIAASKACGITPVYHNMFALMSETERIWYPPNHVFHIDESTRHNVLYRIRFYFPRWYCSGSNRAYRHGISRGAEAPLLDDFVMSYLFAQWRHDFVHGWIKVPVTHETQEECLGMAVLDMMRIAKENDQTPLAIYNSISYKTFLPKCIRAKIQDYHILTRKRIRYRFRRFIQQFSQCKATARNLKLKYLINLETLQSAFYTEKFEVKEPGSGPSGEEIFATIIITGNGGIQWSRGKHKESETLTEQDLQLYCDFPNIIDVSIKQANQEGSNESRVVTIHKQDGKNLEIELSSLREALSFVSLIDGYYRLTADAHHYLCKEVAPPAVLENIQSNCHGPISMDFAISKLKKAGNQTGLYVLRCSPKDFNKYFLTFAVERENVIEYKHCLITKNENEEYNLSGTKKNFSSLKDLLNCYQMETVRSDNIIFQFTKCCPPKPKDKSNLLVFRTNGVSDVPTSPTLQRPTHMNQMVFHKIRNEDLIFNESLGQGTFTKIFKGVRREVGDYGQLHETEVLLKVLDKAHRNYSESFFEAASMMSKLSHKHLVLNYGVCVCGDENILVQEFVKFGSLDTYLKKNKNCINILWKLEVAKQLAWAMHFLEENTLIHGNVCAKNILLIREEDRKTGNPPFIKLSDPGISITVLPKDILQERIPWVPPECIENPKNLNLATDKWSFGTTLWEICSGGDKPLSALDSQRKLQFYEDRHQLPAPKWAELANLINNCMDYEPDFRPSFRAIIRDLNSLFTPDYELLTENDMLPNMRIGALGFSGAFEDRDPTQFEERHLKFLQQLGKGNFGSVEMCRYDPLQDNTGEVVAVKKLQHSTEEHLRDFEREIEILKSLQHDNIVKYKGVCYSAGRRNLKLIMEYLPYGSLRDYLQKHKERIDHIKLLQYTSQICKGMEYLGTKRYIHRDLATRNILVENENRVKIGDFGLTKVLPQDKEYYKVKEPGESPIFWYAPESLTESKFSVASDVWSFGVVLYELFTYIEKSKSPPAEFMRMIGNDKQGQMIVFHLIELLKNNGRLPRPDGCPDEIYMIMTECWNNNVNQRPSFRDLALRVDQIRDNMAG
Compound,GI50 (NCI-H1975),GI50 (NCI-H2087),IC50 [2],IC50 [3],GI50 (BaF3),GI50 [1]
COc1nn(C)cc1Nc1ncc2scc(-c3cccc(N)c3)c2n1,4.49 µM,4.6 µM,0.154 µM,0.068 µM,1.01 µM,0.313 µM
COc1nn(C)cc1Nc1ncc2scc(-c3cccc(NC(=O)[C@@H](C)N4CCN(C(C)=O)CC4)c3)c2n1,23.6 µM,21.1 µM,,,1.69 µM,1.89 µM
COc1nn(C)cc1Nc1ncc2scc(-c3cccc(NC(=O)[C@@H](C)N4CCN(C(=O)CC#N)CC4)c3)c2n1,40.3 µM,23.3 µM,,,3.98 µM,2.44 µM
C=CC(=O)N1C[C@H](Nc2ncnc3[nH]ccc23)CC[C@@H]1C [RITLECITINIB],> 50 µM,> 50 µM,,,> 50 µM,> 50 µM
COc1nn(C)cc1Nc1ncc2scc(-c3cccc(NC(C)=O)c3)c2n1,> 50 µM,> 44 µM,0.295 µM,0.05 µM,4.16 µM,0.331 µM
COc1nn(C)cc1Nc1ncc2scc(-c3cccc(NC(=O)[C@H]4CCCN4C4CCN(C)CC4)c3)c2n1,11 µM,4.26 µM,,,2.25 µM,1.61 µM
COc1nn(C)cc1Nc1ncc2scc(-c3cccc(NC(=O)[C@@H]4CCCN4)c3)c2n1,8.86 µM,3.74 µM,,,3.33 µM,1.22 µM
COc1nn(C)cc1Nc1ncc2scc(-c3cccc(NC(=O)[C@@H](C)N4CCN(S(C)(=O)=O)CC4)c3)c2n1,20.2 µM,22.2 µM,,,3.77 µM,2.45 µM
C[C@@H]1CCN(C(=O)CC#N)C[C@@H]1N(C)c1ncnc2[nH]ccc12 [TOFACITINIB],> 50 µM,> 50 µM,,,1.81 µM,0.495 µM
COc1nn(C)cc1Nc1ncc2scc(-c3cccc(NC(=O)[C@@H](C)N4CCN(C(C)C)CC4)c3)c2n1,15.4 µM,3.61 µM,,,1.05 µM,0.519 µM
C=CC(=O)N1CCN([C@H](C)C(=O)Nc2cccc(-c3csc4cnc(Nc5cn(C)nc5OC)nc34)c2)CC1,13.5 µM,10.5 µM,,,1.62 µM,1.7 µM
COc1nn(C)cc1Nc1ncc2scc(-c3cccc(NC(=O)[C@H]4CCCN4)c3)c2n1,5.26 µM,1.51 µM,1.6 µM,0.069 µM,3.31 µM,0.744 µM
COc1nn(CCO)cc1Nc1ncc2scc(-c3cccc(NC(=O)[C@@H](C)N4CCN(C)CC4)c3)c2n1,10.4 µM,5.57 µM,,,1.04 µM,0.809 µM
COc1nn(C)cc1Nc1ncc2scc(-c3cccc(NC(=O)[C@@H](C)N4CCN(C5CCOCC5)CC4)c3)c2n1,23.4 µM,8.98 µM,,,1.37 µM,1.22 µM
COc1nn(C)cc1Nc1ncc2scc(-c3cccc(NC(=O)[C@@H](C)N4CCNCC4)c3)c2n1,4.26 µM,1.66 µM,,,0.507 µM,0.188 µM
COc1nn(C)cc1Nc1ncc2scc(-c3cccc(NC(=O)[C@H]4CCCN4S(C)(=O)=O)c3)c2n1,8.98 µM,9.5 µM,,,6.16 µM,3.1 µM
COc1nn(C)cc1Nc1ncc2scc(-c3cccc(NC(=O)[C@H]4CCCN4C(C)=O)c3)c2n1,10.2 µM,13.1 µM,3.02 µM,0.248 µM,4.06 µM,0.897 µM
COc1nn(C)cc1Nc1ncc2scc(-c3cccc(NC(=O)[C@@H](C)N4CCN(C5COC5)CC4)c3)c2n1,> 50 µM,16.4 µM,,,6.07 µM,6.78 µM
COc1nn(C)cc1Nc1ncc2scc(-c3cccc(NS(C)(=O)=O)c3)c2n1,4.53 µM,8.22 µM,,,0.781 µM,0.659 µM
COc1nn(C)cc1Nc1ncc2scc(-c3cccc(NC(=O)[C@H]4CCCN4C4CCOCC4)c3)c2n1,21 µM,9.31 µM,,,6.37 µM,2.79 µM
COc1nn(C)cc1Nc1ncc2scc(-c3cccc(NC(=O)[C@@H](C)N4CCN(C(=O)C(F)(F)F)CC4)c3)c2n1,7.36 µM,3.48 µM,,,1.04 µM,0.351 µM

# Further lines, with some results ahead:
GI50 (NCI-H1975),GI50 (NCI-H2087),IC50 [2],IC50 [3],Compound,GI50 (BaF3),GI50 [1]
18.5 µM,13.5 µM,,,C[C@H](C(=O)Nc1cccc(-c2csc3cnc(Nc4cccnc4O)nc23)c1)N1CCN(C)CC1,6.16 µM,7.31 µM
12.6 µM,6.28 µM,,,C[C@H](C(=O)Nc1cccc(-c2csc3cnc(Nc4cccc(S(C)(=O)=O)c4F)nc23)c1)N1CCN(C)CC1,0.677 µM,0.641 µM
4.61 µM,3.28 µM,,,COc1nn(C(C)=O)cc1Nc1ncc2scc(-c3cccc(NC(=O)[C@@H](C)N4CCN(C)CC4)c3)c2n1,2.27 µM,2.42 µM
16.5 µM,8.62 µM,,,COc1n[nH]cc1Nc1ncc2scc(-c3cccc(NC(=O)[C@@H](C)N4CCN(C)CC4)c3)c2n1,1.24 µM,0.62 µM
7.34 µM,7.05 µM,,,Cc1cc(Nc2ncc3scc(-c4cccc(NC(=O)[C@@H](C)N5CCN(C)CC5)c4)c3n2)n(C)n1,4.26 µM,1.6 µM
27.9 µM,6.47 µM,,,C[C@H](C(=O)Nc1cccc(-c2csc3cnc(Nc4nnn(C)n4)nc23)c1)N1CCN(C)CC1,6.09 µM,7.17 µM
9.18 µM,2.67 µM,,,Cc1ccc(Nc2ncc3scc(-c4cccc(NC(=O)[C@@H](C)N5CCN(C)CC5)c4)c3n2)cn1,2.52 µM,0.994 µM
28.9 µM,7.82 µM,,,Cc1ccnc(C)c1Nc1ncc2scc(-c3cccc(NC(=O)[C@@H](C)N4CCN(C)CC4)c3)c2n1,17.3 µM,16.2 µM
7.4 µM,3.03 µM,,,C[C@H](C(=O)Nc1cccc(-c2csc3cnc(Nc4cn(C)nc4C(F)(F)F)nc23)c1)N1CCN(C)CC1,2.77 µM,1.93 µM
10.5 µM,3.27 µM,,,COc1ncccc1Nc1ncc2scc(-c3cccc(NC(=O)[C@@H](C)N4CCN(C)CC4)c3)c2n1,2.59 µM,1.77 µM
23.1 µM,6.42 µM,,,Cc1ncccc1Nc1ncc2scc(-c3cccc(NC(=O)[C@@H](C)N4CCN(C)CC4)c3)c2n1,2.74 µM,1.97 µM
27.2 µM,6.49 µM,,,Cc1ccc(Nc2ncc3scc(-c4cccc(NC(=O)[C@@H](C)N5CCN(C)CC5)c4)c3n2)c(C)n1,7.83 µM,5.45 µM
